Here are results for 10 compounds from patent US7625895B2, “Diphenyl-dihydro-imidazopyridinones” (Hoffmann-Le Roche Inc., priority 2007, dated 2009).

interaction between p53 and MDM2 proteins (recombinant GST-tagged MDM2 / p53-peptide), sequence (Q00987 whole entry): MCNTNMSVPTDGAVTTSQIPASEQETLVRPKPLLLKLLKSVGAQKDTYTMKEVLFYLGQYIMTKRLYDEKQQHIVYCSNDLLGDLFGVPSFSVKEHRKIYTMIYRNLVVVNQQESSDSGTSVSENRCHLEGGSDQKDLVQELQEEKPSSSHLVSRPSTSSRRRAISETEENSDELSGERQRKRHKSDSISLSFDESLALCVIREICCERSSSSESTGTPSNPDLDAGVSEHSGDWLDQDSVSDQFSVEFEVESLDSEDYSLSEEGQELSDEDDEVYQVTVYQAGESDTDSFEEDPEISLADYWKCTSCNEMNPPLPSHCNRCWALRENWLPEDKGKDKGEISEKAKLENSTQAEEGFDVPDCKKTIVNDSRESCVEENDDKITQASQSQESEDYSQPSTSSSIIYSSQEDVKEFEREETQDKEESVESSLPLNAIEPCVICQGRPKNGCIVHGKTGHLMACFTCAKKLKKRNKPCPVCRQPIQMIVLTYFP

This assay has as its target interaction between p53 and MDM2 proteins (recombinant GST-tagged MDM2 / p53-peptide) (Homo sapiens, UniProt Q00987). The assay is described as follows: HTRF assay of inhibition of the p53-MDM2 interaction (GST-MDM2 binding to biotinylated p53 peptide). The following applies: 90 nM biotinylated p53 peptide, 160 ng/ml GST-MDM2, 37° C. 1 h. On the procedure: The ability of the compounds to inhibit the interaction between p53 and MDM2 proteins was measured by an HTRF (homogeneous time-resolved fluorescence) assay in which recombinant GST-tagged MDM2 binds to a peptide that resembles the MDM2-interacting region of p53 (Lane et al.). Binding of GST-MDM2 protein and p53-peptide (biotinylated on its N-terminal end) is registered by the FRET (fluorescence resonance energy transfer) between Europium (Eu)-labeled anti-GST antibody and streptavidin-conjugated Allophycocyanin (APC).
Test is performed in black flat-bottom 384-well plates (Costar) in a total volume of […] containing: 90 nM biotinylated peptide, 160 ng/ml GST-MDM2, 20 nM streptavidin-APC (PerkinElmerWallac), 2 nM Eu-labeled anti-GST-antibody (PerkinElmerWallac) 0.2% bovine serum albumin (BSA), 1 mM dithiothreitol (DTT) and 20 mM […] (TBS) buffer as follows: Add 10 μL of GST-MDM2 (640 ng/ml working solution) in reaction buffer to each well. Add 10 μL diluted compounds (1:5 dilution in reaction buffer) to each well mix by shaking. Add 20 μL biotinylated p53 peptide (180 nM working solution) in reaction buffer to each well and mix on shaker. Incubate at 37° C. for 1 h. Add 20 μL streptavidin-APC and Eu-anti-GST antibody mixture (6 nM Eu-anti-GST and 60 nM streptavidin-APC working solution) in TBS buffer with 0.2% BSA, shake at room temperature for 30 minutes and read using a TRF-capable plate reader at 665 and 615 nm (Victor 5, Perkin ElmerWallac). If not specified, the reagents were purchased from Sigma Chemical Co.
In the case of `N#Cc1cccc(S(=O)(=O)N2c3ccc(C(=O)N4CCOCC4)c(=O)n3[C@@H](c3ccc(Cl)cc3)[C@H]2c2ccc(Cl)cc2)c1` (single isomer, unassigned) [Example 91, 3-[2R*,3S*-bis-(4-chloro-phenyl)-6-(morpholine-4-carbonyl)-5-oxo-2,3-dihydro-5H-imidazo[1,2-a]pyridine-1-sulfonyl]-benzonitrile], the IC50 worked out at 1600 nM.

Turning to `N#Cc1cc(S(=O)(=O)N2c3cccc(=O)n3[C@@H](c3ccc(Cl)cc3)[C@H]2c2ccc(Cl)cc2)ccc1F` (single isomer, unassigned) [Example 84, 5-[(2R*,3S*)-2,3-Bis-(4-chloro-phenyl)-5-oxo-2,3-dihydro-5H-imidazo[1,2-a]pyridine-1-sulfonyl]-2-fluoro-benzonitrile], the IC50 amounted to 500 nM.

For `COC(=O)c1cccc(S(=O)(=O)N2c3ccc(C(=O)N4CCN(CCn5ccnc5)CC4)c(=O)n3[C@@H](c3ccc(Cl)cc3)[C@H]2c2ccc(Cl)cc2)c1` (racemic) [Example 66, rac-3-{cis-2,3-Bis-(4-chloro-phenyl)-6-[4-(2-imidazol-1-yl-ethyl)-piperazine-1-carbonyl]-5-oxo-2,3-dihydro-5H-imidazo[1,2-a]pyridine-1-sulfonyl}-benzoic acid methyl ester], the IC50 is 670 nM.

In the case of `O=C(CN1CCN(C(=O)c2ccc3n(c2=O)[C@@H](c2ccc(Cl)cc2)[C@@H](c2ccc(Cl)cc2)N3S(=O)(=O)c2ccccc2F)CC1)N1CCOCC1` (racemic) [Example 51, rac-cis-2,3-Bis-(4-chloro-phenyl)-1-(2-fluoro-benzenesulfonyl)-6-[4-(2-morpholin-4-yl-2-oxo-ethyl)-piperazine-1-carbonyl]-2,3-dihydro-1H-imidazo[1,2-a]pyridin-5-one], the IC50 amounted to 710 nM.

Consider `COC(=O)c1cccc(S(=O)(=O)N2c3ccc(C(=O)N4CCN(CC(=O)N5CCOCC5)CC4)c(=O)n3[C@@H](c3ccc(Cl)cc3)[C@H]2c2ccc(Cl)cc2)c1` (racemic) [Example 62, rac-3-{cis-2,3-Bis-(4-chloro-phenyl)-6-[4-(2-morpholin-4-yl-2-oxo-ethyl)-piperazine-1-carbonyl]-5-oxo-2,3-dihydro-5H-imidazo[1,2-a]pyridine-1-sulfonyl}-benzoic acid methyl ester], for which the IC50 is 470 nM.

Turning to `N#Cc1cccc(S(=O)(=O)N2c3ccc(C(=O)N4CCOCC4)c(=O)n3[C@H](c3ccc(Cl)cc3)[C@@H]2c2ccc(Cl)cc2)c1` (single isomer, unassigned) [Example 92, 3-[2R*,3S*-bis-(4-chloro-phenyl)-6-morpholine-4-carbonyl)-5-oxo-2,3-dihydro-5H-imidazo[1,2-a]pyridine-1-sulfonyl]-benzonitrile], the IC50 stood at 690 nM.

Consider `COC(=O)c1cccc(S(=O)(=O)N2c3ccc(C(=O)N4CCN(C)CC4)c(=O)n3[C@@H](c3ccc(Cl)cc3)[C@H]2c2ccc(Cl)cc2)c1` (racemic) [Example 63, rac-3-[cis-2,3-Bis-(4-chloro-phenyl)-6-(4-methyl-piperazine-1-carbonyl)-5-oxo-2,3-dihydro-5H-imidazo[1,2-a]pyridine-1-sulfonyl]-benzoic acid methyl ester], for which the IC50 turned out to be 460 nM.

For the compound `N#Cc1cc(S(=O)(=O)N2c3cccc(=O)n3[C@@H](c3ccc(Cl)cc3)[C@H]2c2ccc(Cl)cc2)ccc1F` (single isomer, unassigned) [Example 85, 5-[(2R*,3S*)-2,3-Bis-(4-chloro-phenyl)-5-oxo-2,3-dihydro-5H-imidazo[1,2-a]pyridine-1-sulfonyl]-2-fluoro-benzonitrile], the IC50 was found to be 220 nM.

Regarding `O=c1cccc2n1[C@@H](c1ccc(Cl)cc1)[C@@H](c1ccc(Cl)cc1)N2S(=O)(=O)c1ccsc1` (racemic) [Example 10, rac-cis-2,3-Bis-(4-chloro-phenyl)-1-(thiophene-3-sulfonyl)-2,3-dihydro-1H-imidazo[1,2-a]pyridin-5-one], the half-maximal inhibitory concentration (IC50) stood at 710 nM.

As to `O=C(O)c1cccc(S(=O)(=O)N2c3cccc(=O)n3[C@@H](c3ccc(Cl)cc3)[C@H]2c2ccc(Cl)cc2)c1` (racemic) [Example 82, rac-3-[cis-2,3-Bis-(4-chloro-phenyl)-5-oxo-2,3-dihydro-5H-imidazo[1,2-a]pyridine-1-sulfonyl]-benzoic acid], the IC50 was found to be 770 nM.
